“Also recorded” adds a separate entry of the source.
Experiments:
Type in all cases: cell-based
hFPR1 = biological target: T1, hFPR1 (Homo sapiens, UniProt P21462); test: ERK1/2 phosphorylation (AlphaScreen SureFire) in hFPR1-FlpIn-CHO cells
T1 construct: expressed in transfected cells
T1 sequence (P21462 1-350): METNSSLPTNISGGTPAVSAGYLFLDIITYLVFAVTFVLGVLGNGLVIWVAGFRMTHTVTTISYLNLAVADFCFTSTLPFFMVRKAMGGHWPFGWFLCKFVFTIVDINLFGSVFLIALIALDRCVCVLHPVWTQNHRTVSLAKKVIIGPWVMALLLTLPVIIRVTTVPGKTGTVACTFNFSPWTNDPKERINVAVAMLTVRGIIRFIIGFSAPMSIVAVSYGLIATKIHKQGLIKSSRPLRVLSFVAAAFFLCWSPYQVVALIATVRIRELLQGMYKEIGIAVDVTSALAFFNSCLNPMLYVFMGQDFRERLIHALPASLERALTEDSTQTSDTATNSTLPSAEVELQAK
From the text: (§1) cDNDA construct and generation of stable cell lines: cDNA in pcDNA3.1^+ encoding the human formyl peptide receptors (FPR) subtypes, hFPR1, hFPR2 and hFPR3 was obtained from Invitrogen. The sequences for 3 hFPR receptors were amplified by PCR and cloned into the Gateway entry vector, pDONR202™, using the BP clonase enzyme mix, according to the manufactures' instructions (Invitrogen Inc, Carlsbad, Calif., USA). All hFPR receptors constructs in pDONR201™ were subsequently transfected into the pEF5/FRT/V5/dest vector using the LR clonase enzyme mix (Invitrogen). Receptor constructs (pEF5/FRT/V5/dest) were used to transfect FIp-In CHO cells as described previously (Valant C et al., PNAS, 2014). Cells were selected using 500 μg/mL hydromycin to generate cell lines stably expressing each receptor construct. Cells were maintained and cultured in high glucose DMEM supplemented with 10% FBS, 16 mM HEPES and 500 μg/mL hydromycin at 37° C. under a humidified atmosphere containing 5% CO2.
(§2) In the various assays described below, cells were plated into 96-well transparent cell culture plates at 4×10^4 cells per well, cultured overnight in serum-free media at 37° C. in 5% CO2.
(§3) Measurement of extracellular signal regulated kinase 1 and 2 phosphorylation (pERK1/2): Initial ERK1/2 phosphorylation at Thr202/Tyr204 time-course experiments were performed to determine the time at which ERK1/2 phosphorylation was maximal after stimulation by each agonist. Cells were seeded onto transparent 96-well cell culture plates at 4×10^4 cells per well. After 6 h, cells were washed once with PBS, and then incubated in serum-free DMEM overnight, to allow FBS-stimulated phosphorylated ERK1/2 levels to subside. […] 10% (v/v) FBS was used as a positive control, with vehicle controls also included. The reaction was terminated by removal of study drugs and lysis of cells with 100 μL of SureFire lysis buffer (TGR Biosciences). Cell were lysed in SureFire lysis buffer and transferred to 384-well opaque proxiplates. Under low-light conditions, a 1:120 (v:v) dilution of AlphaScreen beads (both acceptor and donor):Surefire reaction buffer was prepared, which was mixed with the activation buffer in a ratio of 6:1 (v:v), respectively. Plates were incubated in the dark at 37° C. for 1 h before the fluorescence signal was measured by a Fusion-α plate reader (PerkinElmer Life and Analytical Sciences, Foster city, CA, USA) with standard AlphaScreen settings. Data were normalized to the maximal response elicited by 10% (v/v) FBS at the same time point.
(§4) Receptor mediated pERK1/2 levels were determined using the AlphaScreen™ ERK1/2 SureFire™ kit, as described previously (Keov, P et al., 2014). For all experiments, 10% FBS was used as internal positive control to stimulate pERK1/2, and which the maximum responses were used for normalization of data, whilst vehicle was used as negative control.
(§5) Data analysis: All data were analysed using GraphPad Prism 6.0 (GraphPad Software, San Deigo, Calif., USA). Where appropriate, concentration-response curves were fitted to derive the maximal agonist effect (Emax), and the ligand potency estimate (pEC50), where Emax is the maximal possible response of the system (not the agonist), basal is the basal level of response in the absence of agonist, and pEC50 is the negative logarithm of the agonist concentration that gives a response halfway between Emax and basal.
(§6) In the present study, FIp-IN CHO cells and Gateway plasmid were obtained from Invitrogen Inc (Carlsbad, Calif., USA). The sequences for all 3 known human FPRs (hFPR1, hFPR2 and hFPR3) were amplified by PCR and cloned into the Gateway entry vector, pDONR202TM, using the BP clonase enzyme mix, according to the manufacturers' instructions. The hFPR pDONR201TM constructs were subsequently transfected into the pEF5/FRT/V5/dest vector using the LR clonase enzyme mix (Invitrogen).

hFPR2 = biological target: T2, hFPR2 (Homo sapiens, UniProt P25090); test: ERK1/2 phosphorylation (AlphaScreen SureFire) in hFPR2-FlpIn-CHO cells
T2 construct: expressed in transfected cells
T2 sequence (P25090 1-351): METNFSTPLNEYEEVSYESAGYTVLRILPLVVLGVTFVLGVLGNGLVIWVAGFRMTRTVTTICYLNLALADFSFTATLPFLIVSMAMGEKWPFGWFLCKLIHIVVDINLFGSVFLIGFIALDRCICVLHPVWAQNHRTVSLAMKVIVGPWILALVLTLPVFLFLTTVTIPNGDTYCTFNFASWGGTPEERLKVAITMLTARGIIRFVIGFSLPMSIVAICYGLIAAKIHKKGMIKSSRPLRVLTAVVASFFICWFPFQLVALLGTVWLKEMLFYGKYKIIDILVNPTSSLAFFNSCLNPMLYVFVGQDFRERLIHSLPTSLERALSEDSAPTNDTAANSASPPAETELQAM
From the text: as §1, §2, §3, §4, §5, §6

hFPR3 = biological target: T3, hFPR3 (Homo sapiens, UniProt P25089); test: Agonist responses (ERK1/2 phosphorylation) in hFPR3-CHO cells
T3 construct: expressed in transfected cells
T3 sequence (P25089 1-353): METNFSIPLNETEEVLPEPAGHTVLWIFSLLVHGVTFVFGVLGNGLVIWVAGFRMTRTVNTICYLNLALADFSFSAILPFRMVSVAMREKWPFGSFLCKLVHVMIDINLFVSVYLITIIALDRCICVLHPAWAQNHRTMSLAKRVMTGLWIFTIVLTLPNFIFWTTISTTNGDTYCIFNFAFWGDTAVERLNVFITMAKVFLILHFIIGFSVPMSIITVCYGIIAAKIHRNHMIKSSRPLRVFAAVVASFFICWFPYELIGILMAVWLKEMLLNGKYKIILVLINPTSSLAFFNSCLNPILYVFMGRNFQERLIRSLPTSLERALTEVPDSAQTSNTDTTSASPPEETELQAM
From the text: as §1, with “Cells were maintained and cultured in high glucose DMEM supplemented with 10% FBS, 16 mM HEPES and 500 μg/mL hydromycin at 37° C. under a humidified atmosphere containing 5% CO2.” left out
Measurement of extracellular signal regulated kinase 1 and 2 phosphorylation (pERK1/2): Initial ERK1/2 phosphorylation at Thr202/Tyr204 time-course experiments were performed to determine the time at which ERK1/2 phosphorylation was maximal after stimulation by each agonist. […] Plates were incubated in the dark at 37° C. for 1 h before the fluorescence signal was measured by a Fusion-α plate reader (PerkinElmer Life and Analytical Sciences, Foster city, CA, USA) with standard AlphaScreen settings. […]

CCCCC[C@H](O)/C=C/C=C\C=C\C=C\[C@@H](O)[C@@H](O)CCCC(=O)O [LxA4, lipoxin-A4]
ERK-phosphorylation at hFPR1 (in words) (hFPR1): failed to stimulate; also recorded: without effect
ERK-phosphorylation at hFPR2 (in words) (hFPR2): failed to stimulate; also recorded: without effect
Agonist response (ERK-phosphorylation) in hFPR3-CHO cells (hFPR3): failed to stimulate; also recorded: without effect

— patent US10328075B2, “Method of treatment and compounds for use therein” (Baker Heart and Diabetes Institute, priority 2015, dated 2019)
